Test system: SNAP-25
Test: SNAP-25 levels in total lysate of CSPα−/− primary cortical neurons (quantitative immunoblotting, β-actin normalization)
Assay type: cell-based, mice
Conditions: 200 μM, 72 h, FIG. 3D; for augmentation of SNAP-25 levels: neurons expressing CSPα^L115R and CSPα^L116Δ; for SNAP-25 levels: neurons expressing CSPα^WT or SSPα
Excerpt: For the experiments shown in FIGS. 3A-3E, primary cortical neurons from neonatal CSPα^−/− mice were infected with lentiviruses expressing Myc-tagged CSPα^WT, CSPα^L115R, CSPα^L116Δ, SSPα, or empty lentivirus (Control) on 7 days in vitro (DIV) and examined on 17 DIV. […] The lentivirus infected cells were stained using antibodies against Myc (green), somatodendritic marker MAP2 (red), and counterstained with nuclear stain DAPI (blue). […] Immunoprecipitation (IP) for SNAP-25 was followed by quantitative immunoblotting of the co-immunoprecipitated (co-IP'd) CSPα (top blot), and normalized to the IP'd SNAP-25 (bottom blot). IP: Control=sham IP without IgG. Palm=palmitoylated. […] The mutant CSPα signal was normalized to the amount of immunoprecipitated wilt type CSPα. N.D.=not detected. Representative data from of n=4 shown. […] Immunoprecipitation using anti-synaptobrevin-2 (Syb-2) antibody was followed by quantitative immunoblotting of co-IP'd SNARE-complex partners syntaxin-1 (Synt-1) and SNAP-25. IP: Control=sham IP with plain rabbit serum. […] The Synt-1 signal was normalized to the amount of each normalized to the IP'd Syb-2. Representative data from of n=4 shown. […] The SNAP-25 signal was normalized to the amount of each normalized to the IP'd Syb-2. For the experiments shown in FIGS. 3D-3E, CSPα^−/− primary cortical neurons were lentivirally infected to express Myc-tagged CSPα^WT, CSPα^L115R, CSPα^L116Δ, SSPα, or empty lentivirus (Control) on 5 DIV, and were treated on 12 DIV with vehicle (-=0.1% DMSO), or iron chelators deferiprone (L1=200 μM) and deferoxamine (Dfx=200 μM) for 72 h. […] Cell extracts were separated by SDS-PAGE, and subjected to quantitative immunoblotting using anti-SNAP-25 antibody and β-actin for normalization. To measure palmitoylation, oligomers were disrupted by lysing neurons in 0.1 N HCl plus 0.1% Triton X-100 for 20 min at 4° C., followed by SDS-PAGE and quantitative immunoblotting against CSPα. Representative immunoblots are shown. […] FIG. 3D (right panel) show quantitation of oligomers, palmitoylated CSPα, respectively, in corresponding lane and expressed as a percentage of total. […] Cell extracts were immunoprecipitated using a negative control or anti-Syb-2 antibody, followed by quantitative immunoblotting of the co-IP'd t-SNAREs SNAP-25 and Synt-1. […] In FIGS. 3B-3E data represent means±SEM. *P<0.05; **P<0.01; ***P<0.001; ****P<0.0001 by two-tailed Student's t-test. #P<0.05 by Mann-Whitney-Wilcoxon U test. n.s.=not significant; n.d.=not detected. […]
For SDS-PAGE, 10-15% Laemmli gels (10.3% T and 3.3% C) were used to separate proteins on Bio-Rad apparati. […] Immunoblots were washed 5× with TBS-T and dried, then scanned on Odyssey CLx (LI-COR) and quantified using Image-Studio software (LI-COR). […]

In the case of `CC(=O)N(O)CCCCCNC(=O)CCC(=O)N(O)CCCCCNC(=O)CCC(=O)N(O)CCCCCN` [Dfx, N′-[5-(Acetyl-hydroxy-amino)pentyl]-N-[5-[3-(5-aminopentyl-hydroxy-carbamoyl)propanoylamino]pentyl]-N-hydroxy-butane diamide], the “augmentation of SNAP-25 levels” value is reported as “approximately two-fold” and the SNAP-25 levels is reported as “neither L1 nor Dfx affected SNAP-25 levels”.

`Cc1c(O)c(=O)ccn1C` [L1, 3-hydroxy-1,2-dimethyl-4(1H)-pyridone] was tested, and the “augmentation of SNAP-25 levels” value was “approximately two-fold” and the SNAP-25 levels was “neither L1 nor Dfx affected SNAP-25 levels”.

Reference: patent publication US12083105B2, “Compositions and methods for treating adult-onset neuronal ceroid lipofuscinosis (Kufs disease)” (CORNELL UNIVERSITY, priority 2020, dated 2024)
